Measured values: US20260215428A1, “WEED CONTROL METHOD” (SYNGENTA CROP PROTECTION AG, priority 2023, published 2026)

Assays:
Format in all cases: in vivo
[1] = system: Sorghum halepense; experiment: Further glasshouse test versus other ACCase-inhibiting herbicides, Table B2-4; details: 21 days after application
Description: (§1) Further tests were employed to test the efficacy of a compound of Formula I versus other ACCase-inhibiting herbicides. The five main targets were Lolium multiflorum, Eleusine indica, Digitaria insularis, Sorghum halepense and Echinochloa crus-galli. Collectively, the populations contained all the major target-site resistance mutations affecting ACCase herbicides. Two L. multiflorum (LM-NTSR-1 and LM-NTSR-2) and one E. crus-galli (ECG-NTSR-1) populations were characterised exclusively by non-target-site resistance (“NTSR”). The target-site resistant L. multiflorum and E. indication populations were 100% homozygous for different ACCase mutations whilst the D. insularis, S. halepense and E. crus-galli samples contained a mixture of homozygous wild and mutant individuals at different genotypic frequencies. Additional underlying NTSR cannot be ruled out in the populations characterised by target-site resistance.
(§2) Around 50 seeds of each of the 24 weed populations were sown in 12-cm pots containing a mixture of peat and compost in a 1:1 ratio. The pots were watered, fertilised and kept in controlled glasshouse conditions set at 24° C./16 hr day, 18° C. night, 65% relative humidity, and a photon flux density of approximately 250 μmol quanta m^−2 s^−1 for Lolium multiflorum. The E. indica, D. insularis, S. halepense and E. crus-galli plants were kept in a separate glasshouse bay characterised by a 17 H photoperiod of 180 μmol m^−2 s^−1 with temperatures of 25° C. day and 19° C. night and 65% relative humidity. When the plants were at the two to four-leaf stage, they were treated with the various ACCase-inhibiting herbicides at 0, 15, 30, 60, 120 and 240 g ai ha^−1 in a spray cabinet mounted with a single mobile Teejet flat fan nozzle (11002VS) calibrated to deliver 200 L ha^−1 at 200 kPa. The L. multiflorum populations were treated by a compound of Formula Ic, clodinafop-propargyl, pinoxaden, cycloxydim and clethodim and the warm season grass weeds E. indica, D. insularis, S. halepense and E. crus-galli were sprayed with a Compound Ic and the commonly employed haloxyfop-methyl and clethodim. Three replicate pots were used per population. Plants were assessed for visual damage compared to the untreated control 21 days after application (0=0% damage; 100=100% damage).

[2] = system: Lolium multiflorum; experiment: Glasshouse post-emergence test, visual damage, Table B1-1
Procedure: Seeds of a variety of test species are sown in standard soil in pots. For each treatment, three replicate pots containing 10-15 plants per one-inch pot were sprayed at the 2-3 leaf stage. Clethodim and Compound (Ic) were each applied at 15, 30, 60 and 120 g ai/ha. The test plants are then grown in a glasshouse under controlled conditions in a glasshouse (at 24/16° C., day/night; 14 hours light; 65% humidity) and watered twice daily. […]

[3] = system: Echinochloa Crus-galli; experiment: Further glasshouse test versus other ACCase-inhibiting herbicides, Table B2-5; details: 21 days after application
Description: as §1, §2

[4] = system: Digitaria insularis; experiment: Further glasshouse test versus other ACCase-inhibiting herbicides, Table B2-3; details: 21 days after application
Description: as §1, §2

[5] = system: Setaria viridis; experiment: Glasshouse post-emergence test, visual damage, Table B1-5; details: 14 days after application
Procedure: Seeds of a variety of test species are sown in standard soil in pots. For each treatment, three replicate pots containing 10-15 plants per one-inch pot were sprayed at the 2-3 leaf stage. Clethodim and Compound (Ic) were each applied at 15, 30, 60 and 120 g ai/ha. The test plants are then grown in a glasshouse under controlled conditions in a glasshouse (at 24/16° C., day/night; 14 hours light; 65% humidity) and watered twice daily. Plants were assessed for visual damage compared to the untreated control 14 days after application (0=0% damage; 100=100% damage).

`CC#Cc1ccc(C2=C(OC(=O)OC)C3CCC(C3)C2=O)c(OC)c1` (stereo not shown) [Compound Ic] gave a visual damage ([1]; biotype Sensitive, 15 g/ha) of 95%, a visual damage ([1]; biotype Sensitive, 30 g/ha) of 97% and a visual damage ([1]; biotype Sensitive, 60 g/ha) of 100%. For the same molecule, the visual damage ([1]; biotype Sensitive, 120 g/ha) was 100%, the visual damage ([1]; biotype Sensitive, 240 g/ha) was 100% and the visual damage ([1]; biotype W2027C, 15 g/ha) was 65%. It also gave a visual damage ([1]; biotype W2027C, 30 g/ha) of 80%, a visual damage ([1]; biotype W2027C, 60 g/ha) of 98% and a visual damage ([1]; biotype W2027C, 120 g/ha) of 100%. For the same molecule, the visual damage ([1]; biotype W2027C, 240 g/ha) was 100%, the visual damage ([2]; biotype CC2027 (homozygous), 15 g/ha, 14 days after application) was 100% and the visual damage ([2]; biotype CC2027 (homozygous), 30 g/ha, 14 days after application) was 100%. The visual damage ([2]; biotype CC2027 (homozygous), 60 g/ha, 14 days after application) was 100%, the visual damage ([2]; biotype CC2027 (homozygous), 120 g/ha, 14 days after application) was 100% and the visual damage ([2]; biotype GG2078 (homozygous), 15 g/ha, 14 days after application) was 40%. The visual damage ([2]; biotype GG2078 (homozygous), 30 g/ha, 14 days after application) was 100%, the visual damage ([2]; biotype GG2078 (homozygous), 60 g/ha, 14 days after application) was 100% and the visual damage ([2]; biotype GG2078 (homozygous), 120 g/ha, 14 days after application) was 100%. The visual damage ([2]; biotype LL1781 (homozygous), 15 g/ha, 14 days after application) was 100%, the visual damage ([2]; biotype LL1781 (homozygous), 30 g/ha, 14 days after application) was 100% and the visual damage ([2]; biotype LL1781 (homozygous), 60 g/ha, 14 days after application) was 100%. The visual damage ([2]; biotype LL1781 (homozygous), 120 g/ha, 14 days after application) was 100%, the visual damage ([2]; biotype NN2041 (homozygous), 15 g/ha, 14 days after application) was 47% and the visual damage ([2]; biotype NN2041 (homozygous), 30 g/ha, 14 days after application) was 100%. For the same molecule, the visual damage ([2]; biotype NN2041 (homozygous), 60 g/ha, 14 days after application) was 100%, the visual damage ([2]; biotype NN2041 (homozygous), 120 g/ha, 14 days after application) was 100% and the visual damage ([2]; biotype RR2088 (homozygous), 15 g/ha, 14 days after application) was 100%. For the same molecule, the visual damage ([2]; biotype RR2088 (homozygous), 30 g/ha, 14 days after application) was 100%, the visual damage ([2]; biotype RR2088 (homozygous), 60 g/ha, 14 days after application) was 100% and the visual damage ([2]; biotype RR2088 (homozygous), 120 g/ha, 14 days after application) was 100%. For the same molecule, the visual damage ([2]; biotype SS1999 (homozygous), 15 g/ha, 21 DAA) was 85%, the visual damage ([2]; biotype SS1999 (homozygous), 30 g/ha, 21 DAA) was 100% and the visual damage ([2]; biotype SS1999 (homozygous), 60 g/ha, 21 DAA) was 100%. For the same molecule, the visual damage ([2]; biotype SS1999 (homozygous), 120 g/ha, 21 DAA) was 100%, the visual damage ([2]; biotype Sensitive, 15 g/ha, 14 days after application) was 100% and the visual damage ([2]; biotype Sensitive, 30 g/ha, 14 days after application) was 100%. The visual damage ([2]; biotype Sensitive, 60 g/ha, 14 days after application) was 100%, the visual damage ([2]; biotype Sensitive, 120 g/ha, 14 days after application) was 100% and the visual damage ([3]; biotype Sensitive, 15 g/ha) was 100%. For the same molecule, the visual damage ([3]; biotype Sensitive, 30 g/ha) was 100%, the visual damage ([3]; biotype Sensitive, 60 g/ha) was 100% and the visual damage ([3]; biotype Sensitive, 120 g/ha) was 100%. The visual damage ([3]; biotype Sensitive, 240 g/ha) was 100%, the visual damage ([3]; biotype W2027C, 15 g/ha) was 100% and the visual damage ([3]; biotype W2027C, 30 g/ha) was 100%. The visual damage ([3]; biotype W2027C, 60 g/ha) was 100%, the visual damage ([3]; biotype W2027C, 120 g/ha) was 100% and the visual damage ([3]; biotype W2027C, 240 g/ha) was 100%. It also gave a visual damage ([3]; population ECG-NTSR-1 (non-target-site resistance), 15 g/ha) of 90%, a visual damage ([3]; population ECG-NTSR-1 (non-target-site resistance), 30 g/ha) of 100% and a visual damage ([3]; population ECG-NTSR-1 (non-target-site resistance), 60 g/ha) of 100%. For the same molecule, the visual damage ([3]; population ECG-NTSR-1 (non-target-site resistance), 120 g/ha) was 100%, the visual damage ([3]; population ECG-NTSR-1 (non-target-site resistance), 240 g/ha) was 100% and the visual damage ([4]; biotype Sensitive, 15 g/ha) was 100%. It also gave a visual damage ([4]; biotype Sensitive, 30 g/ha) of 100%, a visual damage ([4]; biotype Sensitive, 60 g/ha) of 100% and a visual damage ([4]; biotype Sensitive, 120 g/ha) of 100%. For the same molecule, the visual damage ([4]; biotype Sensitive, 240 g/ha) was 100%, the visual damage ([4]; biotype W2027C, 15 g/ha) was 100% and the visual damage ([4]; biotype W2027C, 30 g/ha) was 100%. The visual damage ([4]; biotype W2027C, 60 g/ha) was 100%, the visual damage ([4]; biotype W2027C, 120 g/ha) was 100% and the visual damage ([4]; biotype W2027C, 240 g/ha) was 100%. It also gave a visual damage ([5]; biotype GG2078 (homozygous), 15 g/ha) of 50%, a visual damage ([5]; biotype GG2078 (homozygous), 30 g/ha) of 73% and a visual damage ([5]; biotype GG2078 (homozygous), 60 g/ha) of 98%. It also gave a visual damage ([5]; biotype GG2078 (homozygous), 120 g/ha) of 98%, a visual damage ([5]; biotype II1781 (homozygous), 15 g/ha) of 70% and a visual damage ([5]; biotype II1781 (homozygous), 30 g/ha) of 90%. It also gave a visual damage ([5]; biotype II1781 (homozygous), 60 g/ha) of 98%, a visual damage ([5]; biotype II1781 (homozygous), 120 g/ha) of 100% and a visual damage ([5]; biotype LL1781 (homozygous), 15 g/ha) of 60%. The visual damage ([5]; biotype LL1781 (homozygous), 30 g/ha) was 90%, the visual damage ([5]; biotype LL1781 (homozygous), 60 g/ha) was 98% and the visual damage ([5]; biotype LL1781 (homozygous), 120 g/ha) was 100%. It also gave a visual damage ([5]; biotype Sensitive, 15 g/ha) of 87%, a visual damage ([5]; biotype Sensitive, 30 g/ha) of 93% and a visual damage ([5]; biotype Sensitive, 60 g/ha) of 100%. It also gave a visual damage ([5]; biotype Sensitive, 120 g/ha) of 100%.
